According to patent publication EP0982027A1, “Taxoid derivatives for treating abnormal cell proliferation of the brain” (RHONE-POULENC RORER S.A., priority 1998, dated 2000):
Several values for one entry are separate records, joined by “and”; a condition that tells them apart may be missing. Identical values can stand only once. Like-named read-outs stand apart in the source and are kept apart here.

Test: in vivo
Parameters: species or system female C3H/HeN mice
Conditions: mouse, 40 mg.kg^-1 i.v.; for AUC0-∞: mean level data
Method: Groups of female C3H/HeN mice received the product by the intravenous route as a bolus at a dose level of 40 mg.kg^-1 equivalent to 120 mg.m^-2. Blood and brain samples were obtained from all dosed animals sacrificed at intervals up to 72 hours post dose. Brain and corresponding plasma samples have been assayed for product Ia content by an LC-MS/MS assay.
• Formulation: 2.25 mg.ml^-1 solution containing 5 % Polysorbate 80, 5 % ethanol and 90 % of an aqueous 5 % glucose solution. […]
• Sampling : Blood by cardiac puncture and liver and brain by dissection after CO2 sacrifice • Sample Times : at 2, 5, 15, 30, 45 minutes, 1, 2, 4, 6, 8, 14, 24, 48 and 72 hours post dose.
Whole blood was collected into heparinised tubes and corresponding plasma samples were obtained by centrifugation and frozen immediately at -20°C. Tissues were blotted, weighed and frozen immediately at -20°C. All samples were dispatched frozen for analysis. Upon receipt, samples were stored frozen at approximately -18°C pending analysis.
• Detection: LC-MS/MS (Sciex API III plus) in turbo-ionspray mode
The following MS conditions were applied:
Column: 75 x 4.6 mm Supelcosil ABZ plus (3 µm). Mobile phase: Acetonitrile/methanol/ammonium acetate (10mM); 40/25/35 v/v/v. Flow rate : 1 ml.min^-1. Temperature : Ambient. Extraction : Plasma: Add 100 µl of acetonitrile to sample (50 µl). Vortex, centrifuge, remove supernatant, add 100 µl of mobile phase and inject 150 µl. Brain : Add 100 µl of acetonitrile to homogenised sample (100 mg of a 1:1 w/w brain with water homogenate) and vortex. Add 1ml of diethyl ether, vortex, centrifuge, remove organic layer and dry under N2. Reconstitute in 200 µl of mobile phase and inject 150 µl. Calibration standards: Plasma : Nine at concentrations of 5, 10, 20, 50, 100, 200, 300, 400 & 500 ng.ml^-1 (product Ia). Prepared by adding suitable aliquots of the product (concentrations = 0.1, 1 or 10 µg.ml^-1) in ethanol to 0.5 ml aliquots of mouse plasma. Each sample was vortexed following drug addition; a 50 µl aliquot was then removed for assay. Brain : Eleven at concentrations of 10, 20, 30, 100, 200, 300, 400, 500, 1000, 2500 & 5000 ng.g^-1 in homogenised mouse brain (1:1 w/w brain with water). Prepared by adding suitable aliquots of the product (concentrations = 1, 10 or 100 µg.ml^-1) in ethanol to 0.5, 1, 3 or 4 g of homogenised mouse brain. Each sample was vortexed following drug addition and a 100 mg aliquot was then removed for assay. Retention times: Drug; product Ia: ∼2.3 min. Extraction efficiency : Plasma : ca.58 % at 200 ng.ml^-1. Brain : ca.41 % at 500 ng.g^-1 and 39 % at 1000 ng.g^-1.
A biexponential equation was fitted to the profiles using an interactive linear least-square algorithm as part of the SIPHAR package.
AUC0-∞: Area under the plasma or brain concentration versus time curve from t=0 (start of infusion) to infinity. Initial T1/2: Initial (distribution) half-life. Terminal T1/2: Terminal (elimination) half-life (should be regarded as an estimate only being dependent on sampling frequency in the terminal phase and assay sensitivity). ClT: Total plasma clearance. Vdss: Volume of distribution at steady state. n.a.: Not applicable.

Question: With CO[C@H]1C(=O)[C@]2(C)[C@@H](OC)C[C@H]3OC[C@@]3(OC(C)=O)[C@H]2[C@H](OC(=O)c2ccccc2)[C@]2(O)C[C@H](OC(=O)[C@H](O)[C@@H](NC(=O)OC(C)(C)C)c3ccccc3)C(C)=C1C2(C)C [product Ia, 4α-acetoxy-2α-benzoyloxy-5β,20-epoxy-1β-hydroxy-7β,10β-dimethoxy-9-oxo-11-taxen-13α-yl (2R,3S)-3 tert-butoxycarbonylamino-2-hydroxy-3-phenylpropionate] as the compound, how does the “AUC0-∞” value (Brain, extrapolated from 72h to infinity) read?
Answer: 788 h.µg.g^-1 and 787.8* h.µg.g^-1

Question: What about the ClT (Plasma#, calculated from values ≥ b.l.q. of 20 ng.ml^-1) of the same compound?
Answer: 1.3 L/h/kg

Question: What about the ClT (Plasma+, calculated from values ≥ l.o.d. of 4 ng.ml^-1) of the same compound?
Answer: 1.3 L/h/kg

Question: What about the “AUC0-∞” value (Plasma+, calculated from values ≥ l.o.d. of 4 ng.ml^-1, listed as product Ic, 40 mg/kg) of the same compound?
Answer: 30.0 µg·h/mL

Question: And the Cmax at 14 h (brain, iv, at 14h, read-out: brain peak levels)?
Answer: 9100 ng/g

Question: What about the half-life (iv, Brain, read-out: Terminal T1/2 (converted)) of the same compound?
Answer: 1880 min

Question: What about the clearance (iv, Plasma+, calculated from values ≥ l.o.d. of 4 ng.ml^-1, read-out: ClT (converted)) of the same compound?
Answer: 21.7 mL/min/kg

Question: And the “time post dose up to which plasma levels were consistently above the limit of detection” value (limit 4 ng.ml^-1)?
Answer: up to 24 h

Question: What about the “time post dose up to which plasma levels persisted above the limit of accurate quantification” value (limit 20 ng.ml^-1) of the same compound?
Answer: up to 14 h

Question: What about the “Plasma product Ic concentration” value (2 min after dose, individual animals IV1-IV4, 40 mg/kg, 2 min) of the same compound?
Answer: 45942 ng/mL and 49607 ng/mL and 38994 ng/mL

Question: And the “Brain product Ic concentration” value (2 min after dose, individual animals IV1-IV4, listed as product Ic, 40 mg/kg, 2 min)?
Answer: 8817 ng/g and 8147 ng/g and 7630 ng/g

Question: What about the “Plasma product Ic concentration” value (5 min after dose, individual animals IV1-IV4, 40 mg/kg, 5 min) of the same compound?
Answer: 33538 ng/mL and 32077 ng/mL and 34903 ng/mL

Question: And the “Brain product Ic concentration” value (5 min after dose, individual animals IV1-IV4, listed as product Ic, 40 mg/kg, 5 min)?
Answer: 8473 ng/g and 7762 ng/g and 8091 ng/g

Question: What about the “Plasma product Ic concentration” value (15 min after dose, individual animals IV1-IV4, 40 mg/kg, 15 min) of the same compound?
Answer: 20897 ng/mL and 21051 ng/mL and 19459 ng/mL

Question: What about the “Brain product Ic concentration” value (15 min after dose, individual animals IV1-IV4, listed as product Ic, 40 mg/kg, 15 min) of the same compound?
Answer: 7100 ng/g and 7641 ng/g and 6481 ng/g

Question: What about the “Plasma product Ic concentration” value (0.5h after dose, individual animals IV1-IV4, 40 mg/kg, 30 min) of the same compound?
Answer: 10344 ng/mL and 9170 ng/mL and 11232 ng/mL

Question: What about the “Brain product Ic concentration” value (0.5h after dose, individual animals IV1-IV4, listed as product Ic, 40 mg/kg, 30 min) of the same compound?
Answer: 6788 ng/g and 8317 ng/g and 6894 ng/g

Question: What about the “Plasma product Ic concentration” value (0.75h after dose, individual animals IV1-IV4, 40 mg/kg, 45 min) of the same compound?
Answer: 10948 ng/mL and 8121 ng/mL and 10148 ng/mL

Question: And the “Brain product Ic concentration” value (0.75h after dose, individual animals IV1-IV4, listed as product Ic, 40 mg/kg, 45 min)?
Answer: 8086 ng/g and 7513 ng/g and 7272 ng/g

Question: And the “Plasma product Ic concentration” value (1h after dose, individual animals IV1-IV4, 40 mg/kg, 60 min)?
Answer: 7423 ng/mL and 6693 ng/mL and 6079 ng/mL

Question: What about the “Brain product Ic concentration” value (1h after dose, individual animals IV1-IV4, listed as product Ic, 40 mg/kg, 60 min) of the same compound?
Answer: 6424 ng/g and 8964 ng/g and 1747 ng/g and 7489 ng/g

Question: And the “Brain product Ic concentration” value (2h after dose, individual animals IV1-IV4, listed as product Ic, 40 mg/kg, 120 min)?
Answer: 8418 ng/g and 6966 ng/g and 7017 ng/g

Question: What about the “Plasma product Ic concentration” value (4h after dose, individual animals IV1-IV4, 40 mg/kg, 240 min) of the same compound?
Answer: 1110 ng/mL and 835 ng/mL and 830 ng/mL

Question: What about the “Brain product Ic concentration” value (4h after dose, individual animals IV1-IV4, listed as product Ic, 40 mg/kg, 240 min) of the same compound?
Answer: 6939 ng/g and 6712 ng/g and 5459 ng/g

Question: And the “Plasma product Ic concentration” value (6h after dose, individual animals IV1-IV4, 40 mg/kg, 360 min)?
Answer: 316 ng/mL and 346 ng/mL and 336 ng/mL

Question: What about the “Brain product Ic concentration” value (6h after dose, individual animals IV1-IV4, listed as product Ic, 40 mg/kg, 360 min) of the same compound?
Answer: 6688 ng/g and 7968 ng/g and 7350 ng/g and 3712 ng/g

Question: And the “Plasma product Ic concentration” value (8h after dose, individual animals IV1-IV4, 40 mg/kg, 480 min)?
Answer: 199 ng/mL and 195 ng/mL and 154 ng/mL

Question: And the “Brain product Ic concentration” value (8h after dose, individual animals IV1-IV4, listed as product Ic, 40 mg/kg, 480 min)?
Answer: 6977 ng/g and 8616 ng/g and 8342 ng/g

Question: What about the “Plasma product Ic concentration” value (14h after dose, individual animals IV1-IV4, 40 mg/kg, 840 min) of the same compound?
Answer: 56 ng/mL and 50 ng/mL and 52 ng/mL

Question: And the “Brain product Ic concentration” value (14h after dose, individual animals IV1-IV4, listed as product Ic, 40 mg/kg, 840 min)?
Answer: 10049 ng/g and 7595 ng/g and 9271 ng/g

Question: What about the “Brain product Ic concentration” value (24 h after dose, individual animals IV1-IV4, listed as product Ic, 40 mg/kg, 1440 min) of the same compound?
Answer: 9842 ng/g and 7885 ng/g and 9052 ng/g

Question: What about the “Plasma product Ic concentration” value (24 h after dose, individual animals IV1-IV4, values flagged blq (below limit of accurate quantification, 20 ng.ml^-1), 40 mg/kg, 1440 min) of the same compound?
Answer: 15(blq) ng.ml^-1 (2×) and 16(blq) ng.ml^-1

Question: What about the “Plasma product Ic concentration” value (48 h after dose, individual animals IV1-IV4, blq = below 20 ng.ml^-1, n.d. = not detected (≤ l.o.d. of 4 ng.ml^-1)) of the same compound?
Answer: 4(blq) ng.ml^-1

Question: What about the “Brain product Ic concentration” value (48 h after dose, individual animals IV1-IV4, listed as product Ic, 40 mg/kg, 2880 min) of the same compound?
Answer: 8541 ng/g and 7704 ng/g and 7986 ng/g

Question: What about the “Brain product Ic concentration” value (72 h after dose, individual animals IV1-IV4, listed as product Ic, 40 mg/kg, 4320 min) of the same compound?
Answer: 5511 ng/g and 5692 ng/g and 3894 ng/g

Question: And the “Plasma product Ic concentration” value (time after dose printed as '-' (line between 1h and 4h), MEAN)?
Answer: 4283 ng/mL

Question: And the “Plasma product Ic concentration” value (time after dose printed as '-' (line between 1h and 4h), individual animals IV1-IV4, 40 mg/kg)?
Answer: 4633 ng/mL and 4337 ng/mL and 4600 ng/mL and 3564 ng/mL

Question: And the concentration at 2 min (brain, iv, 40 mg/kg, 2 min after dose, MEAN, read-out: Brain product Ic concentration)?
Answer: 7890 ng/g

Question: And the concentration at 2 min (brain, iv, 40 mg/kg, 2 min after dose, individual animals IV1-IV4, read-out: Brain product Ic concentration)?
Answer: 6960 ng/g

Question: What about the concentration at 5 min (brain, iv, 40 mg/kg, 5 min after dose, MEAN, read-out: Brain product Ic concentration) of the same compound?
Answer: 8170 ng/g

Question: And the concentration at 5 min (brain, iv, 40 mg/kg, 5 min after dose, individual animals IV1-IV4, read-out: Brain product Ic concentration)?
Answer: 8340 ng/g

Question: What about the concentration at 0.25 h (brain, iv, 40 mg/kg, 15 min after dose, MEAN, read-out: Brain product Ic concentration) of the same compound?
Answer: 6760 ng/g

Question: And the concentration at 0.25 h (brain, iv, 40 mg/kg, 15 min after dose, individual animals IV1-IV4, read-out: Brain product Ic concentration)?
Answer: 5810 ng/g

Question: What about the concentration at 0.5 h (brain, iv, 40 mg/kg, 0.5h after dose, MEAN, read-out: Brain product Ic concentration) of the same compound?
Answer: 7320 ng/g

Question: What about the concentration at 0.5 h (brain, iv, 40 mg/kg, 0.5h after dose, individual animals IV1-IV4, read-out: Brain product Ic concentration) of the same compound?
Answer: 7260 ng/g

Question: What about the concentration at 0.75 h (brain, iv, 40 mg/kg, 0.75h after dose, MEAN, read-out: Brain product Ic concentration) of the same compound?
Answer: 7640 ng/g

Question: What about the concentration at 0.75 h (brain, iv, 40 mg/kg, 0.75h after dose, individual animals IV1-IV4, read-out: Brain product Ic concentration) of the same compound?
Answer: 7680 ng/g

Question: And the concentration at 1 h (brain, iv, 40 mg/kg, 1h after dose, MEAN, read-out: Brain product Ic concentration)?
Answer: 6160 ng/g

Question: And the concentration at 2 h (brain, iv, 40 mg/kg, 2h after dose, MEAN, read-out: Brain product Ic concentration)?
Answer: 7590 ng/g

Question: What about the concentration at 2 h (brain, iv, 40 mg/kg, 2h after dose, individual animals IV1-IV4, read-out: Brain product Ic concentration) of the same compound?
Answer: 7960 ng/g

Question: And the concentration at 4 h (brain, iv, 40 mg/kg, 4h after dose, MEAN, read-out: Brain product Ic concentration)?
Answer: 6760 ng/g
